Measured values reported in PMC9600068, “New Approach Methods for Hazard Identification: A Case Study with Azole Fungicides Affecting Molecular Targets Associated with the Adverse Outcome Pathway for Cholestasis” (Cells, 2022).

Molecular target: T1, bile salt export pump (BSEP) (Homo sapiens, UniProt O95342)
T1 construct: gene ABCB11
Test: inhibition of taurocholate transport in membrane preparations from HEK293 cells overexpressing human BSEP
Format: biochemical

T1 sequence (O95342 whole entry): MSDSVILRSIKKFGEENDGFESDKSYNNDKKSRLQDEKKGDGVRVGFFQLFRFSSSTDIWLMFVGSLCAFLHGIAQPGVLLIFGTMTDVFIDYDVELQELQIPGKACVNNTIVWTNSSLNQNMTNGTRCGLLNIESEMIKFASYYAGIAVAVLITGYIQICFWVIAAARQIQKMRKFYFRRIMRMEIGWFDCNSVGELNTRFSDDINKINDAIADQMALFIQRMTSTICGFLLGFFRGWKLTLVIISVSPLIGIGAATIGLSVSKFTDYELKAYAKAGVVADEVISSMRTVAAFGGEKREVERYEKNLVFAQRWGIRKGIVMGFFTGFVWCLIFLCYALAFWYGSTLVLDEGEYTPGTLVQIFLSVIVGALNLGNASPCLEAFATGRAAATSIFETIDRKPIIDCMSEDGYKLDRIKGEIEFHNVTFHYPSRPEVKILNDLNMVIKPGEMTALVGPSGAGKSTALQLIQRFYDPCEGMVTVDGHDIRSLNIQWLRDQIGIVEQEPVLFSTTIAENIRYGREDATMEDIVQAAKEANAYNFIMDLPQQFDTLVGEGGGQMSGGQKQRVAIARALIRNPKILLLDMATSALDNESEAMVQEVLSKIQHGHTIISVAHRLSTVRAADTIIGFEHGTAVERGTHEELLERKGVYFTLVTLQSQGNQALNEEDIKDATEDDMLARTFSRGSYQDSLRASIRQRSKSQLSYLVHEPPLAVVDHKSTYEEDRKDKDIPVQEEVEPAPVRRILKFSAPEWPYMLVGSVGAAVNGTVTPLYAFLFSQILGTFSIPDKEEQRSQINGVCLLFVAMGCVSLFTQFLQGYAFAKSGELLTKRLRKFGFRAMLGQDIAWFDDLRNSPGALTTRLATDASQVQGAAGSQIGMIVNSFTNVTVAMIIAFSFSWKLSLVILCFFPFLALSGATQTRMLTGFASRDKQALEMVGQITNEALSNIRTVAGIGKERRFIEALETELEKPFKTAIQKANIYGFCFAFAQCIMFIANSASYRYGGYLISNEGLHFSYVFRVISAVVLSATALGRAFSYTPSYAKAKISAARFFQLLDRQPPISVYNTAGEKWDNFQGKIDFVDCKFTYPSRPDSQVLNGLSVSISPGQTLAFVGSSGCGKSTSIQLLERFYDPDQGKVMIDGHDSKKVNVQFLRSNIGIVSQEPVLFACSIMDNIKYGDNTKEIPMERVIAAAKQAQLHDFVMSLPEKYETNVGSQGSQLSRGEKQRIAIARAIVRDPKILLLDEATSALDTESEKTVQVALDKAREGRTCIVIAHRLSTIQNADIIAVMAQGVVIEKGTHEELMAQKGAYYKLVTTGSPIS

Row | SMILES | IC50 [µM]
1 | CC(C)(C)C(O)(CCc1ccc(Cl)cc1)Cn1cncn1 (centres unmarked) [Te, tebuconazole] | 38
2 | CCCC1COC(Cn2cncn2)(c2ccc(Cl)cc2Cl)O1 (centres unmarked) [Pi, propiconazole] | 78.6
